# US20260053764A1, “COMPOSITION FOR PREVENTING DETERIORATION IN COGNITIVE FUNCTION AND/OR IMPROVING COGNITIVE FUNCTION” (PHARMA FOODS INTERNATIONAL CO., LTD., priority 2020, published 2026)
# Test system: health-associated QOL in a human
# Assay: SF-36 health-associated QOL assessment in clinical tests A and B
# Format: in vivo
# Design: key to General health / Vitality / Mental health: SF-36 subscale score; higher score = better health state
# Conditions: for Everyday role function (mental) / Everyday role function (physical) / General health / Mental health / Physical function / Vitality: mean ± SD
# Source text: SF-36 is known as a QOL assessment method associated with health, wherein SF-36 (MOS 36-Item Short-Form Health Survey) is a self-report type health state questionnaire that can rate eight health concepts (physical function, everyday role function (physical), body pain, general health, vitality, social function, everyday role function (mental) and mental health) as scores. A high score of each health concept (subscale) in SF-36 is interpreted as shown below. • Physical function . . . Capable of carrying out every type of activity including vigorous activity. • Everyday role function (physical) . . . There was no physical problem when carrying out work or normal activity during the past month. • Body pain . . . There was no body pain at all during the past month and usual work was not interfered by body pain at all. • General health . . . Health state is very good. • Vitality . . . Always full of energy during the past month. • Social life function . . . The usual social interactions with family, friends, neighbors and other companions were not at all interfered by any physical or psychological reason. • Everyday role function (mental) . . . There was no psychological problem when carrying out work or normal activity during the past month. • Mental health . . . The subject was in a calm, happy and peaceful mood during the past month.
# Two types of placebo-controlled randomized double-blind two-group parallel comparison tests were carried out as clinical tests. […] Specifically, capsules comprising 100 mg of dextrin per capsule were used as the placebo food.
# The screening examination was carried out to select 60 subjects for each test (a total of 120 subjects). MMSE (Mini Mental State Examination) is an examination for assessing the degree of progression of dementia or the like based on the score thereof with 30 as the perfect score, wherein dementia is suspected with a score of 23 or lower.
# The total of 120 subjects were randomly divided into test A active group, test A placebo group, test B active group and test B placebo group with 30 subjects in each group. Each subject of the test A active group ingested two capsules of the active food, each subject of the test A placebo group ingested two capsules of the placebo food, each subject of the test B active group ingested one capsule of the active food and each subject of the test B placebo group ingested one capsule of the placebo food.
# Each subject followed the schedule shown in the table below and ingested one or two of the assigned capsules together with water for 12 weeks from two weeks after the initial screening examination. All subjects had no particular instruction during the ingestion period and freely took their meals.
# In addition, SF-36 was practiced as health-associated QOL assessment. Regarding SF-36, examination was carried out a total of four times, which are before starting test food ingestion, after four weeks of ingestion, after eight weeks of ingestion and after twelve weeks of ingestion.
# [1] = test A 200 mg, before ingestion
# [2] = test B 100 mg, before ingestion
compound,measurement,setting,value
"NCCCC(=O)O [GABA, γ-aminobutyric acid]",Body pain: difference between active food and placebo food groups,"test A 200 mg, 4 W",−2.1
same,Everyday role function (mental): difference between active food and placebo food groups,"test A 200 mg, 4 W",1.9
same,Everyday role function (physical): difference between active food and placebo food groups,"test A 200 mg, 4 W",2.8
same,General health: difference between active food and placebo food groups,"test A 200 mg, 4 W",0.1
same,Mental health: difference between active food and placebo food groups,"test A 200 mg, 4 W",3.6
same,Physical function: difference between active food and placebo food groups,"test A 200 mg, 4 W",0.4
same,Social life function: difference between active food and placebo food groups,"test A 200 mg, 4 W",1.1
same,Vitality: difference between active food and placebo food groups,"test A 200 mg, 4 W",5.5
same,Everyday role function (mental),"test A 200 mg, 4 w",53.4 ± 6.0
same,Everyday role function (physical),"test A 200 mg, 4 w",54.3 ± 3.5
same,General health,"test A 200 mg, 4 w",57.2 ± 7.9
same,Mental health,"test A 200 mg, 4 w",56.0 ± 6.7
same,Physical function,"test A 200 mg, 4 w",53.8 ± 6.2
same,Vitality,"test A 200 mg, 4 w",56.1 ± 7.3
same,Body pain: difference between active food and placebo food groups,"test A 200 mg, 8 W",−2.9
same,Everyday role function (mental): difference between active food and placebo food groups,"test A 200 mg, 8 W",1.1
same,Everyday role function (physical): difference between active food and placebo food groups,"test A 200 mg, 8 W",3.3
same,General health: difference between active food and placebo food groups,"test A 200 mg, 8 W",2.5
same,Mental health: difference between active food and placebo food groups,"test A 200 mg, 8 W",3.5
same,Physical function: difference between active food and placebo food groups,"test A 200 mg, 8 W",−0.7
same,Social life function: difference between active food and placebo food groups,"test A 200 mg, 8 W",0.9
same,Vitality: difference between active food and placebo food groups,"test A 200 mg, 8 W",4.8
same,Everyday role function (mental),"test A 200 mg, 8 w",52.7 ± 5.7
same,Everyday role function (physical),"test A 200 mg, 8 w",53.8 ± 4.0
same,General health,"test A 200 mg, 8 w",58.4 ± 7.4
same,Mental health,"test A 200 mg, 8 w",56.3 ± 7.3
same,Physical function,"test A 200 mg, 8 w",53.8 ± 6.1
same,Vitality,"test A 200 mg, 8 w",55.6 ± 8.3
same,Body pain: difference between active food and placebo food groups,"test A 200 mg, 12 W",−0.3
same,Everyday role function (mental): difference between active food and placebo food groups,"test A 200 mg, 12 W",1.5
same,Everyday role function (physical): difference between active food and placebo food groups,"test A 200 mg, 12 W",2.1
same,General health: difference between active food and placebo food groups,"test A 200 mg, 12 W",0.2
same,Mental health: difference between active food and placebo food groups,"test A 200 mg, 12 W",3.5
same,Physical function: difference between active food and placebo food groups,"test A 200 mg, 12 W",−1.0
same,Social life function: difference between active food and placebo food groups,"test A 200 mg, 12 W",−1.1
same,Vitality: difference between active food and placebo food groups,"test A 200 mg, 12 W",5.4
same,Everyday role function (mental),"test A 200 mg, 12 w",53.7 ± 5.4
same,Everyday role function (physical),"test A 200 mg, 12 w",54.2 ± 4.2
same,General health,"test A 200 mg, 12 w",58.4 ± 6.5
same,Mental health,"test A 200 mg, 12 w",57.0 ± 5.9
same,Physical function,"test A 200 mg, 12 w",53.6 ± 7.2
same,Vitality,"test A 200 mg, 12 w",57.1 ± 6.7
same,Body pain: difference between active food and placebo food groups,[1],−0.7
same,Everyday role function (mental): difference between active food and placebo food groups,[1],−0.1
same,Everyday role function (physical): difference between active food and placebo food groups,[1],1.3
same,General health: difference between active food and placebo food groups,[1],0.0
same,Mental health: difference between active food and placebo food groups,[1],0.3
same,Physical function: difference between active food and placebo food groups,[1],0.5
same,Social life function: difference between active food and placebo food groups,[1],2.1
same,Vitality: difference between active food and placebo food groups,[1],2.9
same,Everyday role function (mental),[1],52.6 ± 6.3
same,Everyday role function (physical),[1],54.2 ± 4.3
same,General health,[1],57.4 ± 7.4
same,Mental health,[1],54.1 ± 8.4
same,Physical function,[1],53.0 ± 6.1
same,Vitality,[1],54.6 ± 7.6
same,"scores regarding everyday role function (physical), GABA group compared to the placebo group","test A, after eight weeks of ingestion",significant improvement
same,"scores regarding emotional health, GABA group compared to the placebo group","test A, after four weeks of ingestion",significant improvement
same,"scores regarding energy, GABA group compared to the placebo group","test A, at least after four weeks of ingestion",significant improvement
same,Body pain: difference between active food and placebo food groups,"test B 100 mg, 4 W",−0.3
same,Everyday role function (mental): difference between active food and placebo food groups,"test B 100 mg, 4 W",1.5
same,Everyday role function (physical): difference between active food and placebo food groups,"test B 100 mg, 4 W",2.3
same,General health: difference between active food and placebo food groups,"test B 100 mg, 4 W",1.2
same,Mental health: difference between active food and placebo food groups,"test B 100 mg, 4 W",3.3
same,Physical function: difference between active food and placebo food groups,"test B 100 mg, 4 W",1.8
same,Social life function: difference between active food and placebo food groups,"test B 100 mg, 4 W",0.9
same,Vitality: difference between active food and placebo food groups,"test B 100 mg, 4 W",3.0
same,Everyday role function (mental),"test B 100 mg, 4 w",53.0 ± 5.5
same,Everyday role function (physical),"test B 100 mg, 4 w",53.8 ± 4.2
same,General health,"test B 100 mg, 4 w",58.3 ± 7.4
same,Mental health,"test B 100 mg, 4 w",55.8 ± 5.8
same,Physical function,"test B 100 mg, 4 w",55.2 ± 3.7
same,Vitality,"test B 100 mg, 4 w",53.7 ± 7.6
same,Body pain: difference between active food and placebo food groups,"test B 100 mg, 8 W",0.9
same,Everyday role function (mental): difference between active food and placebo food groups,"test B 100 mg, 8 W",2.1
same,Everyday role function (physical): difference between active food and placebo food groups,"test B 100 mg, 8 W",3.4
same,General health: difference between active food and placebo food groups,"test B 100 mg, 8 W",1.2
same,Mental health: difference between active food and placebo food groups,"test B 100 mg, 8 W",3.3
same,Physical function: difference between active food and placebo food groups,"test B 100 mg, 8 W",2.2
same,Social life function: difference between active food and placebo food groups,"test B 100 mg, 8 W",3.2
same,Vitality: difference between active food and placebo food groups,"test B 100 mg, 8 W",4.0
same,Everyday role function (mental),"test B 100 mg, 8 w",53.7 ± 3.9
same,Everyday role function (physical),"test B 100 mg, 8 w",53.9 ± 3.5
same,General health,"test B 100 mg, 8 w",57.2 ± 7.5
same,Mental health,"test B 100 mg, 8 w",56.1 ± 5.8
same,Physical function,"test B 100 mg, 8 w",56.6 ± 2.4
same,Vitality,"test B 100 mg, 8 w",54.8 ± 7.2
same,Body pain: difference between active food and placebo food groups,"test B 100 mg, 12 W",1.8
same,Everyday role function (mental): difference between active food and placebo food groups,"test B 100 mg, 12 W",1.7
same,Everyday role function (physical): difference between active food and placebo food groups,"test B 100 mg, 12 W",1.0
same,General health: difference between active food and placebo food groups,"test B 100 mg, 12 W",1.0
same,Mental health: difference between active food and placebo food groups,"test B 100 mg, 12 W",2.9
same,Physical function: difference between active food and placebo food groups,"test B 100 mg, 12 W",1.3
same,Social life function: difference between active food and placebo food groups,"test B 100 mg, 12 W",0.6
same,Vitality: difference between active food and placebo food groups,"test B 100 mg, 12 W",2.8
same,Everyday role function (mental),"test B 100 mg, 12 w",53.9 ± 4.3
same,Everyday role function (physical),"test B 100 mg, 12 w",53.1 ± 4.2
same,General health,"test B 100 mg, 12 w",59.2 ± 6.2
same,Mental health,"test B 100 mg, 12 w",56.4 ± 5.6
same,Physical function,"test B 100 mg, 12 w",55.9 ± 3.1
same,Vitality,"test B 100 mg, 12 w",54.5 ± 7.4
same,Body pain: difference between active food and placebo food groups,[2],1.3
same,Everyday role function (mental): difference between active food and placebo food groups,[2],1.0
same,Everyday role function (physical): difference between active food and placebo food groups,[2],0.7
same,General health: difference between active food and placebo food groups,[2],0.1
same,Mental health: difference between active food and placebo food groups,[2],2.7
same,Physical function: difference between active food and placebo food groups,[2],3.0
same,Social life function: difference between active food and placebo food groups,[2],3.7
same,Vitality: difference between active food and placebo food groups,[2],2.7
same,Everyday role function (mental),[2],53.7 ± 4.7
same,Everyday role function (physical),[2],53.5 ± 3.9
same,General health,[2],57.5 ± 7.1
same,Mental health,[2],56.5 ± 5.4
same,Physical function,[2],55.6 ± 3.5
same,Vitality,[2],54.4 ± 7.6
same,"scores regarding physical function, GABA group compared to the placebo group","test B, after eight weeks of ingestion",significant improvement
